ChEMBL document CHEMBL3046664, “Synthesis in vitro/in vivo evaluation and in silico physicochemical study of prodrug approach for brain targeting of alkylating agent” (Med Chem Res, 2013)

Experiments:
Blood [1] = assay: Half life in 100% Homo sapiens (human) whole blood assessed as conversion to 1-Benzyl-3-{(bis(2-chloroethyl)amino)carbamoyl}pyridinium bromide at 10 x 10^-4 M by UV-spectrophotometric analysis; format: ADME, tissue-based; settings: 1000 µM
[2] = Half life in silver nitrate solution assessed as conversion to 1-Benzyl-3-{(bis(2-chloroethyl)amino)carbamoyl}pyridinium bromide at 5% after 2 min by UV-Visible spectrophotometric analysis; format: physicochemical
Brain [3] = assay: Half life in Rattus norvegicus (rat) brain homogenate assessed as conversion to 1-Benzyl-3-{(bis(2-chloroethyl)amino)carbamoyl}pyridinium bromide at 6.25 x 10^-4 M by UV-spectrophotometric analysis; format: ADME, tissue-based; settings: 625 µM
Blood [4] = assay: Half life in 100% Rattus norvegicus (rat) whole blood assessed as conversion to 1-Benzyl-3-{(bis(2-chloroethyl)amino)carbamoyl}pyridinium bromide at 10 x 10^-4 M by UV-spectrophotometric analysis; format: ADME, tissue-based; settings: 1000 µM
[5] = Stability of the compound assessed as decomposition at 4 degC after 60 days by UV spectrophotometric analysis; format: physicochemical; settings: read-out: Drug degradation
[6] = Stability of the compound assessed as decomposition at 25 degC after 60 days by UV spectrophotometric analysis; format: physicochemical; settings: read-out: Drug degradation
Brain [7] = assay: Prodrug conversion in Sprague-Dawley Rattus norvegicus (rat) brain homogenate assessed as 1-(4-Nitrobenzyl-3-{(bis(2-chloroethyl)amino)carbamoyl}pyridinium bromide level at 40 mg/kg, iv measured at 15 min by UV-spectrophotometric analysis; format: ADME, organism-based; design: dose 40 mg/kg, route intravenous; settings: in vivo, 0.25 h
Blood [8] = assay: Prodrug conversion in Sprague-Dawley Rattus norvegicus (rat) blood assessed as assessed as 1-(4-Nitrobenzyl-3-{(bis(2-chloroethyl)amino)carbamoyl}pyridinium bromide level at 40 mg/kg, iv measured at 100 min by UV-spectrophotometric analysis; format: ADME, organism-based; design: dose 40 mg/kg, route intravenous; settings: in vivo
Blood [9] = assay: Half life in 100% Rattus norvegicus (rat) whole blood assessed as conversion to 1-(4-Nitrobenzyl-3-{(bis(2-chloroethyl)amino)carbamoyl}pyridinium bromide at 10 x 10^-4 M by UV-spectrophotometric analysis; format: ADME, tissue-based; settings: 1000 µM
Brain [10] = assay: Prodrug conversion in Sprague-Dawley Rattus norvegicus (rat) brain homogenate assessed as 1-(4-Nitrobenzyl-3-{(bis(2-chloroethyl)amino)carbamoyl}pyridinium bromide level at 40 mg/kg, iv measured at 100 min by UV-spectrophotometric analysis; format: ADME, organism-based; design: dose 40 mg/kg, route intravenous; settings: in vivo
[11] = Half life in silver nitrate solution assessed as conversion to1-(4-Nitrobenzyl-3-{(bis(2-chloroethyl)amino)carbamoyl}pyridinium bromide at 5% after 2 min by UV-Visible spectrophotometric analysis; format: physicochemical
Blood [12] = assay: Prodrug conversion in Sprague-Dawley Rattus norvegicus (rat) blood assessed as 1-(4-Nitrobenzyl-3-{(bis(2-chloroethyl)amino)carbamoyl}pyridinium bromide level at 40 mg/kg, iv measured at 60 min by UV-spectrophotometric analysis; format: ADME, organism-based; design: dose 40 mg/kg, route intravenous; settings: in vivo, 1 h
Brain [13] = assay: Prodrug conversion in Sprague-Dawley Rattus norvegicus (rat) brain homogenate assessed as 1-(4-Nitrobenzyl-3-{(bis(2-chloroethyl)amino)carbamoyl}pyridinium bromide level at 40 mg/kg, iv measured at 60 min by UV-spectrophotometric analysis; format: ADME, organism-based; design: dose 40 mg/kg, route intravenous; settings: in vivo, 1 h
Blood [14] = assay: Prodrug conversion in Sprague-Dawley Rattus norvegicus (rat) blood assessed as 1-(4-Nitrobenzyl-3-{(bis(2-chloroethyl)amino)carbamoyl}pyridinium bromide level at 40 mg/kg, iv measured at 150 min by UV-spectrophotometric analysis; format: ADME, organism-based; design: dose 40 mg/kg, route intravenous; settings: in vivo, 2.5 h
Brain [15] = assay: Half life in Rattus norvegicus (rat) brain homogenate assessed as conversion to 1-(4-Nitrobenzyl-3-{(bis(2-chloroethyl)amino)carbamoyl}pyridinium bromide at 6.25 x 10^-4 M by UV-spectrophotometric analysis; format: ADME, tissue-based; settings: 625 µM
Brain [16] = assay: Prodrug conversion in Sprague-Dawley Rattus norvegicus (rat) brain homogenate assessed as 1-(4-Nitrobenzyl-3-{(bis(2-chloroethyl)amino)carbamoyl}pyridinium bromide level at 40 mg/kg, iv measured at 150 min by UV-spectrophotometric analysis; format: ADME, organism-based; design: dose 40 mg/kg, route intravenous; settings: in vivo, 2.5 h
Blood [17] = assay: Half life in 100% Homo sapiens (human) whole blood assessed as conversion to 1-(4-Nitrobenzyl-3-{(bis(2-chloroethyl)amino)carbamoyl}pyridinium bromide at 10 x 10^-4 M by UV-spectrophotometric analysis; format: ADME, tissue-based; settings: 1000 µM
Blood [18] = assay: Prodrug conversion in Sprague-Dawley Rattus norvegicus (rat) blood assessed as 1-(4-Nitrobenzyl-3-{(bis(2-chloroethyl)amino)carbamoyl}pyridinium bromide level at 40 mg/kg, iv measured at 15 min by UV-spectrophotometric analysis; format: ADME, organism-based; design: dose 40 mg/kg, route intravenous; settings: in vivo, 0.25 h
Brain [19] = assay: Prodrug conversion in Sprague-Dawley Rattus norvegicus (rat) brain homogenate assessed as 1-(4-Nitrobenzyl-3-{(bis(2-chloroethyl)amino)carbamoyl}pyridinium bromide level at 40 mg/kg, iv measured at 30 min by UV-spectrophotometric analysis; format: ADME, organism-based; design: dose 40 mg/kg, route intravenous; settings: in vivo, 0.5 h
Blood [20] = assay: Prodrug conversion in Sprague-Dawley Rattus norvegicus (rat) blood assessed as 1-(4-Nitrobenzyl-3-{(bis(2-chloroethyl)amino)carbamoyl}pyridinium bromide level at 40 mg/kg, iv measured at 30 min by UV-spectrophotometric analysis; format: ADME, organism-based; design: dose 40 mg/kg, route intravenous; settings: in vivo, 0.5 h
[21] = Half life of the compound after 30 min by UV-spectrophotometric analysis in presence of 4-(4-nitrobenzyl)pyridine; format: physicochemical

## O=C(C1=CN(Cc2ccccc2)C=CC1)N(CCCl)CCCl
Blood [1]
  t1/2: 36 min
[2]
  t1/2: 5 min
Brain [3]
  t1/2: 25 min
Blood [4]
  t1/2: 29 min
[5]
  degraded at 1440 h: 9%
[6]
  degraded at 1440 h: 18%

## O=C(C1=CN(Cc2ccc([N+](=O)[O-])cc2)C=CC1)N(CCCl)CCCl
Brain [7]
  Drug metabolism: 4 µg/g
Blood [8]
  Drug metabolism: 12 µg/mL
Blood [9]
  t1/2: 34 min
Brain [10]
  Drug metabolism: 27 µg/g
[11]
  t1/2: 7 min
Blood [12]
  Drug metabolism: 35 µg/mL
[5]
  degraded at 1440 h: 3%
Brain [13]
  Drug metabolism: 17 µg/g
Blood [14]
  Drug metabolism: 0 µg/mL
Brain [15]
  t1/2: 31 min
[6]
  degraded at 1440 h: 8%
Brain [16]
  Drug metabolism: 42 µg/g
Blood [17]
  t1/2: 39 min
Blood [18]
  Drug metabolism: 60 µg/mL
Brain [19]
  Drug metabolism: 9 µg/g
Blood [20]
  Drug metabolism: 48 µg/mL

## O=C(c1ccc[n+](Cc2ccccc2)c1)N(CCCl)CCCl.[Br-]
[21]
  half-life: 14.7 min

## O=C(c1ccc[n+](Cc2ccc([N+](=O)[O-])cc2)c1)N(CCCl)CCCl.[Br-]
[21]
  half-life: 8.4 min
